{"source": "paper PMC11286589", "about": "“Population pharmacokinetics and exposure–response analyses of SAF-189s in Chinese patients with ALK+/ROS1+ non-small cell lung cancer” (Frontiers in Pharmacology, 2024)", "key": {"[1]": {"tested_on": "ALK+/ROS1+ advanced NSCLC", "assay": "Exposure–efficacy analysis (logistic regression, Cox regression, SFBE tumor model)", "assay_type": "in vivo, human", "settings": "for Incidence CR: 61 patients", "experimental": "(§1) All studies were conducted in accordance with the Good Clinical Practice guidelines and Declaration of Helsinki. The protocols were approved by the independent ethics committee of each investigation site, and all subjects provided informed consent. The tumor responses were assessed by the IRC based on the Response Evaluation Criteria in Solid Tumors (RECIST) 1.1 conditions. The exposure–efficacy analyses of SAF-189s were conducted based on data from patients in the SAF001 study to explore the relationships between systemic exposure and efficacy endpoints, including the ORR, PFS, and duration of response (DOR). The exposure–safety analyses of SAF-189s were conducted based on data from patients in the SAF001 study to explore the relationships between the systemic exposure and safety endpoints, including the adverse events (AEs) of interest. In these studies, the SAF-189s plasma concentrations were analyzed using validated liquid chromatography tandem mass spectrometry within the assay range of 0.5–150 ng mL^–1.\nThe exposure–efficacy analysis entails evaluation of the relationships between the individual SAF-189s exposures and efficacy endpoints. These efficacy endpoints include the ORR, PFS, DOR, and tumor size. In Eq. 1, the Stein-Fojo biexponential (SFBE) model was used to characterize the tumor shrinkage (mean shrinkage rate, KS) and tumor growth inhibition (mean regrowth rate, KG) parameters to compute the sum of longest lesion diameters (SOD). SODij= It≤0×SOD0i×expKGi×tij+It>0×SOD0i×exp−KSi×tij+expKGi×tij−1+eij. (1)\nThe individual post hoc PK parameters from the final PopPK model and the most prevalent dosage were used to calculate Cmin,ss and AUCss at steady state. The exposure was assessed for its relationship with the ORR using a logistic regression model and with PFS/DOR using the Cox regression model. The individual model parameter estimates (KGi, KSi) were plotted versus Cmin, ss_i to explore the relationships between exposure and tumor growth."}, "[2]": {"tested_on": "CYP3A", "settings": "no reference given; cited from earlier work"}, "[3]": {"tested_on": "ALK+/ROS1+ advanced NSCLC", "settings": "ref Yang et al., cited from earlier work; for ORR: phase II, 2022a"}, "[4]": {"assay": "Adverse events in patients of study SAF001", "assay_type": "in vivo, human", "experimental": "as §1\nThe exposure–safety relationships were characterized using the exposure metrics to the first occurrence of an event. The AEs of interest selected for analysis included hyperglycemia and proteinuria. The individual post hoc PK parameters from the final PopPK model and the first dosage were used to calculate the Cmin,ss, Cmax,ss, and AUCss at steady state, which were used as the exposure metrics. The exposure–safety analysis was performed using a logistic regression modeling approach."}, "[5]": {"settings": "Cmin,ss quartile 1, 61 patients"}, "[6]": {"settings": "Cmin,ss quartile 2, 61 patients"}, "[7]": {"settings": "Cmin,ss quartile 3, 61 patients"}, "[8]": {"settings": "Cmin,ss quartile 4, 61 patients"}, "[9]": {"settings": "parameter Cmin,ss, 192 patients, p 0.251"}, "[10]": {"settings": "parameter Cmin,ss, 244 patients, p 0.059"}, "[11]": {"settings": "ROS1-naive patients, phase IIa, 2022b"}}, "note": "Read-outs that look alike come from different tables or passages of the source.", "data": [{"smiles": "Cc1cc(Nc2ncc(Cl)c(Nc3ccccc3S(=O)(=O)C(C)C)n2)c2c(c1C1CCN(C)CC1)C[C@@H](C)O2", "note": "[SAF-189s]", "values": [{"measurement": "Incidence CR", "setting": "[1]; Cmin,ss quartile 1 (18–60.7 ng mL^–1)", "result": "1 (1.64) N (%)"}, {"measurement": "Incidence NE", "setting": "[1]; [5]", "result": "0 (0.00) N (%)"}, {"measurement": "Incidence PD", "setting": "[1]; [5]", "result": "3 (4.92) N (%)"}, {"measurement": "Incidence PR", "setting": "[1]; [5]", "result": "53 (86.89) N (%)"}, {"measurement": "Incidence SD", "setting": "[1]; [5]", "result": "4 (6.56) N (%)"}, {"measurement": "Incidence CR", "setting": "[1]; Cmin,ss quartile 2 (60.7–79 ng mL^–1)", "result": "0 (0.00) N (%)"}, {"measurement": "Incidence NE", "setting": "[1]; [6]", "result": "0 (0.00) N (%)"}, {"measurement": "Incidence PD", "setting": "[1]; [6]", "result": "4 (6.56) N (%)"}, {"measurement": "Incidence PR", "setting": "[1]; [6]", "result": "44 (72.13) N (%)"}, {"measurement": "Incidence SD", "setting": "[1]; [6]", "result": "13 (21.31) N (%)"}, {"measurement": "Incidence CR", "setting": "[1]; Cmin,ss quartile 3 (79–108 ng mL^–1)", "result": "0 (0.00) N (%)"}, {"measurement": "Incidence NE", "setting": "[1]; [7]", "result": "0 (0.00) N (%)"}, {"measurement": "Incidence PD", "setting": "[1]; [7]", "result": "2 (3.28) N (%)"}, {"measurement": "Incidence PR", "setting": "[1]; [7]", "result": "47 (77.05) N (%)"}, {"measurement": "Incidence SD", "setting": "[1]; [7]", "result": "12 (19.67) N (%)"}, {"measurement": "Incidence CR", "setting": "[1]; Cmin,ss quartile 4 (108–182 ng mL^–1)", "result": "1 (1.64) N (%)"}, {"measurement": "Incidence NE", "setting": "[1]; [8]", "result": "0 (0.00) N (%)"}, {"measurement": "Incidence PD", "setting": "[1]; [8]", "result": "3 (4.92) N (%)"}, {"measurement": "Incidence PR", "setting": "[1]; [8]", "result": "46 (75.41) N (%)"}, {"measurement": "Incidence SD", "setting": "[1]; [8]", "result": "11 (18.03) N (%)"}, {"measurement": "odds ratio (OR), probability of achieving ORR vs Cmin,ss", "setting": "[1]; logistic regression, all patients (n = 244), p = 0.084", "result": 0.556}, {"measurement": "Cox regression estimate, DOR", "setting": "[1]; [9]", "result": 0.0059}, {"measurement": "Hazard ratio (95% CI), DOR", "setting": "[1]; [9]", "result": "1.006 (0.996–1.016)"}, {"measurement": "Cox regression estimate, PFS", "setting": "[1]; [10]", "result": 0.0071}, {"measurement": "Hazard ratio (95% CI), PFS", "setting": "[1]; [10]", "result": "1.007 (1.000–1.015)"}, {"measurement": "tumor size after initiation of treatment", "setting": "[1]; tumor growth inhibition (SFBE) model, most patients", "result": "decreased rapidly"}, {"measurement": "CYP3A substrate", "setting": "[2]", "result": "substrate of CYP3A"}, {"measurement": "IRC-assessed ORR", "setting": "[3]; [11]", "result": 94.1, "unit": "%"}, {"measurement": "median progression-free survival (PFS)", "setting": "[3]; [11]", "result": 16.5, "unit": "months"}, {"measurement": "ORR", "setting": "[3]; ALK+ patients with brain metastases", "result": 74.6, "unit": "%"}, {"measurement": "ORR", "setting": "[3]; ALK-inhibitor-naive patients", "result": 92.3, "unit": "%"}, {"measurement": "ORR", "setting": "[3]; crizotinib-pretreated group", "result": 65.4, "unit": "%"}, {"measurement": "ORR", "setting": "[3]; overall ALK+ patients", "result": 78.7, "unit": "%"}, {"measurement": "IRC-assessed ORR", "setting": "[3]; phase IIb, ROS1-naive, brain metastases subgroup, 2022b", "result": 85.7, "unit": "%"}, {"measurement": "IRC-assessed ORR", "setting": "[3]; phase IIb, overall ROS1-naive patients, 2022b", "result": 80.4, "unit": "%"}, {"measurement": "tolerability", "setting": "[4]; 160 mg QD dosing regimen", "result": "well tolerated"}, {"measurement": "incidence of drug-related TEAE leading to permanent discontinuation", "setting": "[4]; 160 mg dose group", "result": 2, "unit": "%"}, {"measurement": "incidence of grade ≥3 TEAE", "setting": "[4]; 160 mg dose group, ALK+ and ROS1+ patients (n = 153)", "result": "less than 9.15%"}, {"measurement": "tolerability", "setting": "[4]; 210 mg dose vs other lower doses", "result": "less tolerated"}, {"measurement": "incidence rate of hyperglycemia", "setting": "[4]; SAF001 patients, any grade", "result": 55.74, "unit": "%"}, {"measurement": "Diarrhea, number of patients (%)", "setting": "[4]; any grade, N = 296", "result": "65 (21.96%)"}, {"measurement": "Hypercholesterolemia or cholesterol increase, number of patients (%)", "setting": "[4]; any grade, N = 296", "result": "111 (37.50%)"}, {"measurement": "Hyperglycemia, number of patients (%)", "setting": "[4]; any grade, N = 296", "result": "165 (55.74%)"}, {"measurement": "Nausea, number of patients (%)", "setting": "[4]; any grade, N = 296", "result": "112 (37.84%)"}, {"measurement": "Proteinuria, number of patients (%)", "setting": "[4]; any grade, N = 296", "result": "90 (30.41%)"}, {"measurement": "Vomiting, number of patients (%)", "setting": "[4]; any grade, N = 296", "result": "102 (34.46%)"}, {"measurement": "Diarrhea, number of patients (%)", "setting": "[4]; ≥ Grade 2, N = 296", "result": "17 (5.74%)"}, {"measurement": "Hypercholesterolemia or cholesterol increase, number of patients (%)", "setting": "[4]; ≥ Grade 2, N = 296", "result": "27 (9.12%)"}, {"measurement": "Hyperglycemia, number of patients (%)", "setting": "[4]; ≥ Grade 2, N = 296", "result": "82 (27.70%)"}, {"measurement": "Nausea, number of patients (%)", "setting": "[4]; ≥ Grade 2, N = 296", "result": "8 (2.70%)"}, {"measurement": "Proteinuria, number of patients (%)", "setting": "[4]; ≥ Grade 2, N = 296", "result": "28 (9.46%)"}, {"measurement": "Vomiting, number of patients (%)", "setting": "[4]; ≥ Grade 2, N = 296", "result": "15 (5.07%)"}]}]}
